According to patent publication US20230091225A1, “Bifunctional chimeric heterocyclic compounds for targeted degradation of androgen receptors and use thereof” (HINOVA PHARMACEUTICALS INC., priority 2019, published 2023):
Read-outs that look alike come from different tables or passages of the source.

Biological target: T1, androgen receptor (AR) (Homo sapiens, UniProt P10275)
T1 sequence (P10275 1-920): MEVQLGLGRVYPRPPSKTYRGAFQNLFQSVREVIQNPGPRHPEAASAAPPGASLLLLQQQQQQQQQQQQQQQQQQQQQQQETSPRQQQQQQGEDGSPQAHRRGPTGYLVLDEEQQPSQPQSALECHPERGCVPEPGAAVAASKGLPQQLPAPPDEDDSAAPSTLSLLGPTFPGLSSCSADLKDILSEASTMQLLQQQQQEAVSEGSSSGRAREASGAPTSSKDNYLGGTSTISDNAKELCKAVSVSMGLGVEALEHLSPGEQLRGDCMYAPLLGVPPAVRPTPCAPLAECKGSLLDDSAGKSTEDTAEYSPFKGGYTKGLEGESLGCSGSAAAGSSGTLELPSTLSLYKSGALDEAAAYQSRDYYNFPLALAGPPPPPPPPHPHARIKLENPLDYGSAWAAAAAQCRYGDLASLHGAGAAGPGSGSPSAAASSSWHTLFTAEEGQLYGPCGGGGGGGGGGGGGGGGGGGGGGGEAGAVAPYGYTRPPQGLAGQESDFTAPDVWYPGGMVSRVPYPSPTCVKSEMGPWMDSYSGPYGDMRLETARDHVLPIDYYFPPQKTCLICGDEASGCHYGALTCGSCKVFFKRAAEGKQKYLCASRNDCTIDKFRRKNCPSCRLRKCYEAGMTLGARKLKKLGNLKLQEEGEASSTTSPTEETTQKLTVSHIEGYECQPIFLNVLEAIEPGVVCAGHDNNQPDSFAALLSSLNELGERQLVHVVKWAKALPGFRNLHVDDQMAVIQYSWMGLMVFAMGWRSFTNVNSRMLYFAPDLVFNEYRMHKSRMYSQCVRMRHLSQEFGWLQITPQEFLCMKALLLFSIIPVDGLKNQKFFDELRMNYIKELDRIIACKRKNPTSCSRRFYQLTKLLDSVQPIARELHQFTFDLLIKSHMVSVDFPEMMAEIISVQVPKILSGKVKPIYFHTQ
Assay: Degradation of androgen receptor (AR) protein in VCaP cells by ELISA
Format: cell-based
Conditions: for Dmax: VCaP

[1] = AR degradation, VCaP cells, 16 h, ELISA, Table 3-1, read-out: DC50
[2] = AR degradation, VCaP cells, 16 h, ELISA, Table 3-1, read-out: Dmax (%)
[3] = AR degradation, VCaP cells, 16 h, ELISA, Table 3-2, read-out: DC50

Structure (SMILES)	DC50 [1] [µM]	Dmax [2] [%]	other results
N#Cc1ccc(O[C@H]2CC[C@H](NC(=O)c3ncnn3[C@H]3CC[C@H](CN4CCC5(CC4)CN(c4ccc6c(c4)C(=O)N(C4CCC(=O)NC4=O)C6=O)C5)CC3)CC2)cc1Cl (stereo partly drawn) [Compound 86, N-((1r,4R)-4-(3-chloro-4-cyanophenoxy)cyclohexyl)-1-((1r,4R)-4-((2-(2-(2,6-dioxopiperidin-3-yl)-1,3-dioxoisoindolin-5-yl)-2,7-diazaspiro[3.5]nonan-7-yl)methyl)cyclohexyl)-1H-1,2,4-triazole-5-formamide]	0.1 to 0.3	60 to 80	–
N#Cc1ccc(OC2CCC(NC(=O)c3cnc(N4CCN(CC5[C@H]6CN(c7cc8c(cc7F)C(=O)N(C7CCC(=O)NC7=O)C8=O)C[C@@H]56)CC4)cn3)CC2)cc1C(F)(F)F (stereo partly drawn) [Compound 94]	–	–	Dmax (%): +++ (key: ++++: >80%; +++: 80%-60%; ++: 60%-40%; +: <40%); DC50 (read-out: DC50): 0.01 to 0.1 µM
N#Cc1ccc(OC2CCC(NC(=O)c3ccc(N4CCN(CC5[C@H]6CN(c7cc8c(cc7F)C(=O)N(C7CCC(=O)NC7=O)C8=O)C[C@@H]56)CC4)nn3)CC2)cc1C(F)(F)F (stereo partly drawn) [Compound 95]	–	–	Dmax (%): +++ (key: ++++: >80%; +++: 80%-60%; ++: 60%-40%; +: <40%); DC50 (read-out: DC50): 0.01 to 0.1 µM
N#Cc1ccc(O[C@H]2CC[C@H](NC(=O)c3ccc(N4CC5(CCN(C6CCN(c7cc8c(cc7F)C(=O)N(C7CCC(=O)NC7=O)C8=O)CC6)CC5)C4)nn3)CC2)cc1Cl (stereo partly drawn) [Compound 97, N-((1r,4r)-4-(3-chloro-4-cyanophenoxy)cyclohexyl)-6-(7-(1-(2-(2,6-dioxopiperidin-3-yl)-6-fluoro-1,3-dioxoisoindolin-5-yl)piperidine-4-yl)-2,7-diazaspiro[3.5]nonan-2-yl)pyridazine-3-carboxamide]	< 0.01	–	Dmax: > 80%
N#Cc1ccc(O[C@H]2CC[C@H](NC(=O)c3ncc(N4CC5(CCN(C6CCN(c7ccc8c(c7)C(=O)N(C7CCC(=O)NC7=O)C8=O)CC6)CC5)C4)cn3)CC2)cc1Cl (stereo partly drawn) [Compound 106, N-((1r,4r)-4-(3-chloro-4-cyanophenoxy)cyclohexyl)-5-(7-(1-(2-(2,6-dioxopiperidin-3-yl)-1,3-dioxoisoindolin-5-yl)piperidine-4-yl)-2,7-diazaspiro[3.5]nonan-2-yl)pyrimidine-2-carboxamide]	–	–	DC50 [3]: > 0.3 µM; Dmax: < 40%
N#Cc1ccc(O[C@H]2CC[C@H](NC(=O)c3nnc(N4CC5(CCN(CC6CCN(c7cc8c(cc7F)C(=O)N(C7CCC(=O)NC7=O)C8=O)CC6)CC5)C4)s3)CC2)cc1Cl (stereo partly drawn) [Compound 107, N-((1r,4r)-4-(3-chloro-4-cyanophenoxy)cyclohexyl)-5-(7-((1-(2-(2,6-dioxopiperidin-3-yl)-6-fluoro-1,3-dioxoisoindolin-5-yl)piperidine-4-yl)methyl)-2,7-diazaspiro[3.5]nonan-2-yl)-1,3,4-thiadiazole-2-carboxamide]	–	–	DC50 [3]: < 0.01 µM; Dmax (AR degradation, VCaP cells, 16 h, ELISA, Table 3-2, read-out: Dmax (%)): > 80%
N#Cc1ccc(OC2CCC(NC(=O)c3cn(C4CCC(CN5CCC6(CC5)CN(c5cc7c(cc5F)C(=O)N(C5CCC(=O)NC5=O)C7=O)C6)CC4)cn3)CC2)cc1Cl [Compound 112, N-((1r,4R)-4-(3-chloro-4-cyanophenoxy)cyclohexyl)-1-((1r,4R)-4-((2-(2,6-dioxopiperidin-3-yl)-6-fluoro-1,3-dioxoisoindolin-5-yl)-2,7-diazaspiro[3.5]nonan-7-yl)methyl)cyclohexyl)-1H-imidazole-4-carboxamide]	–	–	Dmax (%): + (key: ++++: >80%; +++: 80%-60%; ++: 60%-40%; +: <40%); DC50 (read-out: DC50): > 0.3 µM
N#Cc1ccc(OC2CCC(NC(=O)c3cn(C4CCC(CN5CCC6(CC5)CN(c5ccc7c(c5)C(=O)N(C5CCC(=O)NC5=O)C7=O)C6)CC4)cn3)CC2)cc1Cl [Compound 113, N-((1r,4R)-4-(3-chloro-4-cyanophenoxy)cyclohexyl)-1-((1r,4R)-4-((2-(2-(2,6-dioxopiperidin-3-yl)-1,3-dioxoisoindolin-5-yl)-2,7-diazaspiro[3.5]nonan-7-yl)methyl)cyclohexyl)-1H-imidazole-4-formamide]	–	–	Dmax (%): ++++ (key: A: >80%; B: 79%-50%; C: 49%-25%; D: <25%); DC50 (read-out: DC50): < 0.01 µM
CN(C1CCN(c2ccc(C(=O)N[C@H]3CC[C@H](Oc4ccc(C#N)c(Cl)c4)CC3)nn2)CC1)C1CCN(c2cc3c(cc2F)C(=O)N(C2CCC(=O)NC2=O)C3=O)CC1 (stereo partly drawn) [Compound 119]	< 0.01	–	Dmax: > 80%
N#Cc1ccc(O[C@H]2CC[C@H](NC(=O)c3ccc(N4CCC(CN5CC6(C5)CN(c5ccc7c(c5)C(=O)N(C5CCC(=O)NC5=O)C7=O)C6)CC4)nn3)CC2)cc1Cl (stereo partly drawn) [Compound 121, N-((1r,4r)-4-(3-chloro-4-cyanophenoxy)cyclohexyl)-6-(4-((6-(2-(2,6-dioxopiperidin-3-yl)-1,3-dioxoisoindolin-5-yl)-2,6-diazaspiro[3.3]heptan-2-yl)methyl)piperidin-1-yl)pyridazine-3-amide]	–	–	DC50: < 0.01 µM; Dmax: > 80%
N#Cc1ccc(O[C@H]2CC[C@H](NC(=O)c3ccc(N4CCC(CN5CC6(C5)CN(c5cc7c(cc5F)C(=O)N(C5CCC(=O)NC5=O)C7=O)C6)CC4)nn3)CC2)cc1Cl (stereo partly drawn) [Compound 122, N-((1r,4r)-4-(3-chloro-4-cyanophenoxy)cyclohexyl)-6-(4-((6-(2-(2,6-dioxopiperidin-3-yl)-6-fluoro-1,3-dioxoisoindolin-5-yl)-2,6-diazaspiro[3.3]heptan-2-yl)methyl)piperidin-1-yl)pyridazine-3-amide]	–	–	DC50: < 0.01 µM; Dmax: > 80%

More lines, main results first:

DC50 [1] [µM]	Dmax [2] [%]	Structure (SMILES)	other results
0.1 to 0.3	40 to 60	N#Cc1ccc(O[C@H]2CC[C@H](NC(=O)c3ncnn3[C@H]3CC[C@H](CN4CCC5(CC4)CN(c4cc6c(cc4F)C(=O)N(C4CCC(=O)NC4=O)C6=O)C5)CC3)CC2)cc1Cl (stereo partly drawn) [Compound 87]	–
< 0.01	> 80	N#Cc1ccc(O[C@H]2CC[C@H](NC(=O)c3ccc(N4CC5(CN(C[C@@H]6[C@H]7CN(c8cc9c(cc8F)C(=O)N(C8CCC(=O)NC8=O)C9=O)C[C@@H]67)C5)C4)nn3)CC2)cc1Cl (stereo partly drawn) [Compound 92]	–
0.01 to 0.1	60 to 80	N#Cc1ccc(O[C@H]2CC[C@H](NC(=O)c3ccc(N4CCCN(C[C@@H]5[C@H]6CN(c7cc8c(cc7F)C(=O)N(C7CCC(=O)NC7=O)C8=O)C[C@@H]56)CC4)nn3)CC2)cc1Cl (stereo partly drawn) [Compound 93]	–
< 0.01	> 80	N#Cc1ccc(O[C@H]2CC[C@H](NC(=O)c3cnc(N4CC5(CCN(CC6CCN(c7cc8c(cc7F)C(=O)N(C7CCC(=O)NC7=O)C8=O)CC6)C5)C4)cn3)CC2)cc1Cl (stereo partly drawn) [Compound 96]	–
< 0.01	> 80	N#Cc1ccc(O[C@H]2CC[C@H](NC(=O)c3cn([C@H]4CC[C@H](CN5CCC6(CC5)CN(c5ccc7c(c5)C(=O)N(C5CCC(=O)NC5=O)C7=O)C6)CC4)nn3)CC2)cc1Cl (stereo partly drawn) [Compound 114, N-((1r,4R)-4-(3-chloro-4-cyanophenoxy)cyclohexyl)-1-((1r,4R)-4-((2-(2-(2,6-dioxopiperidin-3-yl)-1,3-dioxoisoindolin-5-yl)-2,7-diazaspiro[3.5]nonan-7-yl)methyl)cyclohexyl)-1H-1,2,3-triazole-4-carboxamide]	–
< 0.01	> 80	N#Cc1ccc(O[C@H]2CC[C@H](NC(=O)c3cn([C@H]4CC[C@H](CN5CCC6(CC5)CN(c5cc7c(cc5F)C(=O)N(C5CCC(=O)NC5=O)C7=O)C6)CC4)nn3)CC2)cc1Cl (stereo partly drawn) [Compound 115]	–
< 0.01	> 80	N#Cc1ccc(O[C@H]2CC[C@H](NC(=O)c3cnn([C@H]4CC[C@H](CN5CCC6(CC5)CN(c5ccc7c(c5)C(=O)N(C5CCC(=O)NC5=O)C7=O)C6)CC4)n3)CC2)cc1Cl (stereo partly drawn) [Compound 116, N-((1r,4R)-4-(3-chloro-4-cyanophenoxy)cyclohexyl)-2-((1r,4R)-4-((2-(2-(2,6-dioxopiperidin-3-yl)-1,3-dioxoisoindolin-5-yl)-2,7-diazaspiro[3.5]nonan-7-yl)methyl)cyclohexyl)-2H-1,2,3-triazole-4-carboxamide]	–
0.1 to 0.3	> 80	N#Cc1ccc(O[C@H]2CC[C@H](NC(=O)c3cnn([C@H]4CC[C@H](CN5CCC6(CC5)CN(c5cc7c(cc5F)C(=O)N(C5CCC(=O)NC5=O)C7=O)C6)CC4)n3)CC2)cc1Cl (stereo partly drawn) [Compound 117]	–
< 0.01	> 80	N#Cc1ccc(O[C@H]2CC[C@H](NC(=O)c3ccc(N4CC5(CN(CC6CCN(c7cc8c(cc7F)C(=O)N(C7CCC(=O)NC7=O)C8=O)CC6)C5)C4)nn3)CC2)cc1Cl (stereo partly drawn) [Compound 124]	–
< 0.01	> 80	N#Cc1ccc(O[C@H]2CC[C@H](NC(=O)c3cnc(N4CC5(CN(CC6CCN(c7cc8c(cc7F)C(=O)N(C7CCC(=O)NC7=O)C8=O)CC6)C5)C4)cn3)CC2)cc1Cl (stereo partly drawn) [Compound 125]	–
